The results in this text go back to paper PMC12040169 (PLOS Biology, 2025).

The nature of this data set: in vitro. As to conditions: human, hela cells, % viability.
Consider `CC(C)c1csc(C2CCN(C(=O)CCc3ccsc3)CC2)n1` [CBK305327], for which the viability at 28.5 h, 10 µM amounted to 104%. `Cc1cnn(C2CCCN(C(=O)CC3OCCc4sccc43)C2)c1` (stereo not drawn) [CBK305329]: the viability at 28.5 h, 10 µM amounted to 84.6%. Regarding `CCCc1nc(CN2CCN(c3ccc4nncn4n3)CC2)cs1` [CBK305330], the viability at 28.5 h, 10 µM was found to be 97.7%.

For the compound `Cc1cc(C)n(CC2CCCCN2CC(=O)NC(C)c2ccco2)n1` (stereo not drawn) [CBK305331], the viability at 28.5 h, 10 µM is 87.9%.

As to `N#Cc1c(CN2CCCC(c3noc(C4CC4)n3)C2)cn2ccccc12` (stereo not drawn) [CBK305332], the viability at 28.5 h, 10 µM is 98.7%. Under `Cc1cc(N2CCN(Cc3nc(C(C)(C)C)no3)CC2)nc(C(C)C)n1` [CBK305333] stands 96.3%; under `Cc1cnn(CCC(=O)N2CCOC(c3nc(C(C)(C)C)n[nH]3)C2)c1` (stereo not drawn) [CBK305336], 110%. As to `COc1ccc(CNC(=O)CN2CCCC(Cn3cncn3)C2)cc1` (stereo not drawn) [CBK305339], the viability at 28.5 h, 10 µM came out at 88.9%. Under `Cc1ccc(C(CNCc2cn(C)nc2-c2cccnc2)N(C)C)cc1` (stereo not drawn) [CBK305343] stands 109%. Under `Cc1cccc(OCCNC(=O)CN2CCCC2Cn2cncn2)c1` (stereo not drawn) [CBK305345] stands 102%; under `CN(C(=O)c1ccccn1)C1CCN(c2ncnc3ccccc23)CC1` [CBK305346], 91.8%. For `CCc1nc(CN2CCCC(NC(C(N)=O)c3ccccc3)C2)no1` (stereo not drawn) [CBK305348] the value was 97.4%. Take `COc1c(C)cnc(CNC2CCCN(Cc3noc(C)n3)C2)c1C` (stereo not drawn) [CBK305350]: the viability at 28.5 h, 10 µM amounted to 92.3%. Consider `Cc1cc(C)n(CC2CN(C(C)C(=O)NCc3ccco3)CCO2)n1` (stereo not drawn) [CBK305351], for which the viability at 28.5 h, 10 µM is 101%. `O=C(c1cn2ccccc2n1)N1CCCN(Cc2cscn2)CC1` [CBK305352]: the viability at 28.5 h, 10 µM was 104%. For `COc1ccc(C)cc1-n1ccc(C(=O)NCC2(C)CCCS2)n1` (stereo not drawn) [CBK305355] the value was 83.3%; for `CCc1cnc(CN(C)C2CCN(CC(=O)Nc3cccnc3)C2)o1` (stereo not drawn) [CBK305358], 92%; for `O=C(Nc1cccc(Cl)c1)N(Cc1ccncc1)CC1CCCO1` (stereo not drawn) [CBK305362], 93%.

In the case of `CCc1noc(C(C)N2CCN(CC(=O)NCc3ccco3)CC2)n1` (stereo not drawn) [CBK305368], the viability at 28.5 h, 10 µM was 116%. For `Cc1cnn(CC2CCCN2C(=O)CC2OCCc3ccsc32)c1` (stereo not drawn) [CBK305370] the value was 86.5%; for `CCc1nc(CN(C(C)=O)C2CCN(CCc3ccccn3)C2)no1` (stereo not drawn) [CBK305372], 96.7%.

On to `CCc1nc(CN2CCCC(NCc3ccc(C(N)=O)cc3)C2)no1` (stereo not drawn) [CBK305373], for which the viability at 28.5 h, 10 µM was determined as 94.2%. For `COc1ccc(C(=O)N2CCCN(Cc3ccc(C#N)cc3)CC2)cc1` [CBK305374] the value was 94.7%.

`CC(C)n1ccnc1CNc1cccc(OCC(=O)N2CCCC2)c1` [CBK305377]: the viability at 28.5 h, 10 µM came to 97%. With `COc1ccc(CNC(=O)CN2CCCCC2Cn2cccn2)cc1` (stereo not drawn) [CBK305379], the viability at 28.5 h, 10 µM came to 93.1%. On to `CCOC(=O)c1cnn(C2CCCN(C(=O)c3cscc3C)C2)c1` (stereo not drawn) [CBK305385], for which the viability at 28.5 h, 10 µM stood at 93.1%. Regarding `CCc1cnccc1C(=O)N1CCC(NC(=O)c2cnn(C)c2)CC1` [CBK305388], the viability at 28.5 h, 10 µM came out at 105%. Take `Cn1cc(-c2nc(C3COCCN3Cc3ccc(F)cc3)no2)cn1` (stereo not drawn) [CBK305391]: the viability at 28.5 h, 10 µM was found to be 97.7%. For `CCn1c(C(C)NC2CCN(CC(=O)OC)CC2)nc2ccccc21` (stereo not drawn) [CBK305396] the value was 97.9%.

On to `COc1cccc(NC(=O)N(CCCO)C2CCc3ccccc32)c1` (stereo not drawn) [CBK305397], for which the viability at 28.5 h, 10 µM came to 95%. For `CCn1cc(CN2CCCN(C(=O)c3cc(C4CC4)on3)CC2)cn1` [CBK305401] the value was 88.1%. For `CN(Cc1cnn(C)c1)C(=O)c1ccc(Cl)cc1Br` [CBK305404] the value was 93%; for `CC(=O)NC(CC(=O)N1CCCC(n2cccn2)C1)c1cccs1` (stereo not drawn) [CBK305405], 94.6%.

`CCCc1[nH]ncc1C(=O)N1CCN(c2ccnc(N(C)C)n2)CC1` [CBK305406]: the viability at 28.5 h, 10 µM turned out to be 96.4%. Turning to `CCOC(=O)c1csc(C2CCCN2C(=O)CC2C=CCCC2)n1` (stereo not drawn) [CBK305407], the viability at 28.5 h, 10 µM was found to be 97.8%. For `Cn1cc(CCNC(=O)Nc2ccc(CN3CCCC3=O)cc2)cn1` [CBK305410], the viability at 28.5 h, 10 µM is 107%. Turning to `CN(C(=O)CN1CCCCC1Cn1cccn1)C1(C#N)CCCCC1` (stereo not drawn) [CBK305412], the viability at 28.5 h, 10 µM worked out at 90.1%. Take `CCOC(=O)N1CCN(Cc2ccc(OCc3nccn3C)cc2)CC1` [CBK305413]: the viability at 28.5 h, 10 µM came to 94%. Regarding `Cc1nc(CN2C(=O)CC(Cc3cnn(C)c3)C2=O)nc2ccccc12` (stereo not drawn) [CBK305415], the viability at 28.5 h, 10 µM came to 105%. As to `COCCc1nsc(N2CCC(Oc3cccnc3N(C)C)C2)n1` (stereo not drawn) [CBK305418], the viability at 28.5 h, 10 µM came out at 98.8%. Consider `CCn1cc(C2CN(S(=O)(=O)c3sc(C)nc3C)CCO2)cn1` (stereo not drawn) [CBK305420], for which the viability at 28.5 h, 10 µM was found to be 96.8%. Turning to `Cn1cc(C(=O)N2CCOCC2c2nc(-c3cccs3)no2)cn1` (stereo not drawn) [CBK305422], the viability at 28.5 h, 10 µM came to 113%. `CCCCNc1cc(N2CCOC(c3cnn(CC)c3)C2)nc(N)n1` (stereo not drawn) [CBK305423]: the viability at 28.5 h, 10 µM was 93.8%.

Regarding `Cc1cccc(OCC(=O)NCC(c2cccs2)N2CCOCC2)c1` (stereo not drawn) [CBK305426], the viability at 28.5 h, 10 µM was found to be 90.1%. On to `CC(C)NC(=O)CN1CCC(N(C)Cc2cccc(C(F)(F)F)c2)CC1` [CBK305429], for which the viability at 28.5 h, 10 µM amounted to 95%.

On to `C#CCNS(=O)(=O)c1cccc(C(=O)NC2CCOc3ccccc32)c1` (stereo not drawn) [CBK305430], for which the viability at 28.5 h, 10 µM was 111%. Turning to `Cc1ccc(Cl)c(OC(C)C(=O)N(CCCO)Cc2ccncc2)c1` (stereo not drawn) [CBK305432], the viability at 28.5 h, 10 µM worked out at 109%. For `CC1c2ccsc2CCN1C(=O)COc1cccc(Br)c1` (stereo not drawn) [CBK305434], the viability at 28.5 h, 10 µM stood at 91.9%.

Consider `CC(Oc1cccc(C#N)c1)C(=O)N1CCCC1C(=O)NCC(F)(F)F` (stereo not drawn) [CBK305435], for which the viability at 28.5 h, 10 µM amounted to 93.8%. Take `CC(C)c1nc(CC(=O)NCCC(=O)N2CCCc3ccccc32)cs1` [CBK305437]: the viability at 28.5 h, 10 µM was 98.1%.

As to `Cc1nc(CCNC(=O)c2nn(-c3cccc(C(C)C)c3)cc2O)cs1` [CBK305438], the viability at 28.5 h, 10 µM is 109%.

As to `CC(C)OC(=O)Cc1nc(CN2CCOC(c3ccc(F)cc3)C2)cs1` (stereo not drawn) [CBK305439], the viability at 28.5 h, 10 µM is 119%.

`Cn1cc(-c2nc(C3COCCN3Cc3c(F)cccc3Cl)no2)cn1` (stereo not drawn) [CBK305441]: the viability at 28.5 h, 10 µM was determined as 79.4%. As to `Cn1cc(-c2nc(C3COCCN3C(=O)c3cccc(Cl)c3)no2)cn1` (stereo not drawn) [CBK305443], the viability at 28.5 h, 10 µM was 80.1%. Turning to `CS(=O)(=O)Nc1c[nH]nc1C1CCCN(c2cccc(F)c2C#N)C1` (stereo not drawn) [CBK305444], the viability at 28.5 h, 10 µM was determined as 95.2%. Under `O=C(NCCCn1cccn1)N1CCCN(Cc2ccc(Cl)cc2)CC1` [CBK305447] stands 116%; under `CCOC(=O)c1csc(C2CCCN2C(=O)CCc2ccccc2O)n1` (stereo not drawn) [CBK305448], 109%. On to `COCCn1ccc(NC(=O)N2CCCC(c3cc(F)ccc3F)C2)n1` (stereo not drawn) [CBK305451], for which the viability at 28.5 h, 10 µM came to 79.6%. Consider `COC(C)c1nc(C)c(C(=O)NC2CCCN(c3ccn(C)n3)C2=O)s1` (stereo not drawn) [CBK305454], for which the viability at 28.5 h, 10 µM is 100%.

With `CC(C)(C)OC(=O)N1CCCC(C(=O)NC(CO)Cc2ccccn2)C1` (stereo not drawn) [CBK305458], the viability at 28.5 h, 10 µM is 88.4%.

For `Cc1c(C(=O)N2CCNC(=O)C2(C)C)nnn1Cc1ccc(F)cc1F` [CBK305461], the viability at 28.5 h, 10 µM was 80.2%. Under `CN(c1cccc(C#N)c1)C1CCN(c2nc3c(cnn3C)c(=O)[nH]2)C1` (stereo not drawn) [CBK305462] stands 91.8%; under `Cc1ncsc1C(=O)N1CCNCC1c1cccc(F)c1` (stereo not drawn) [CBK305463], 93.1%. For the compound `Cc1cc(C(C)NC(=O)C2CCCN(S(C)(=O)=O)C2)c(C)s1` (stereo not drawn) [CBK305464], the viability at 28.5 h, 10 µM was 98.4%. Under `CN(CCC1CCN(c2ccncc2)CC1)C(=O)c1cc2sccc2[nH]1` [CBK305468] stands 93.3%; under `Cc1ccc(C)c(CC(=O)N(CCC(=O)O)C2CCOCC2)c1` [CBK305469], 92.3%. For `CC(C)NC(=O)CN1CCN(c2ccc(C#N)cc2Cl)CC1` [CBK305470] the value was 88.3%; for `Cn1cc(N2CCN(C(=O)CCOc3ccccc3)CC2)cn1` [CBK305473], 102%; for `O=C(CN1CCC(C(O)C(=O)NC2CC2)CC1)Nc1cc(Cl)ccc1F` (stereo not drawn) [CBK305477], 93.4%. For the compound `N#Cc1ccc(S(=O)(=O)N2CCC(OCc3ccncc3)C2)cn1` (stereo not drawn) [CBK305478], the viability at 28.5 h, 10 µM stood at 91%. Take `COc1ccc2[nH]cc(C3CCN(C(=O)c4cc(C#N)c[nH]4)CC3)c2c1` [CBK305479]: the viability at 28.5 h, 10 µM worked out at 93.2%. Turning to `Cn1cc(C(=O)CCC(=O)NC2CCCN(c3ncccn3)C2)cn1` (stereo not drawn) [CBK305480], the viability at 28.5 h, 10 µM is 94.1%.

As to `O=C(c1ncc(F)cc1F)N1CCCCC1CN1CCOCC1` (stereo not drawn) [CBK305482], the viability at 28.5 h, 10 µM was 102%. For the compound `Cc1ncc(S(=O)(=O)N2CCC(OCc3ccncc3)C2)s1` (stereo not drawn) [CBK305483], the viability at 28.5 h, 10 µM amounted to 99.5%. For `COC(=O)c1cc(C(=O)Nc2ccc(OCCC(N)=O)cc2)c[nH]1` [CBK305486] the value was 103%; for `COCC1CCN(C(=O)Nc2ccc(F)c(N3CCCNC3=O)c2)C1` (stereo not drawn) [CBK305487], 100%.

With `CN(C(=O)CCn1c(=O)oc2cc(Cl)ccc21)C1(C(N)=O)CCCC1` [CBK305493], the viability at 28.5 h, 10 µM was 89.1%. `Cc1csc(S(=O)(=O)Cc2nnc(C)n2C2CC2)n1` [CBK305494]: the viability at 28.5 h, 10 µM came to 98.4%. As to `Cn1cncc1CN1CCNC(=O)C1c1ccccc1C(F)(F)F` (stereo not drawn) [CBK305495], the viability at 28.5 h, 10 µM amounted to 98%.

Regarding `Brc1ccc(C2(c3nnc(C4CC4)o3)CCOCC2)cc1` [CBK305498], the viability at 28.5 h, 10 µM amounted to 98.2%. For `CC(C)(C)OC(=O)C1(NC(=O)Cc2cn3ccccc3n2)CCCC1` [CBK305500] the value was 95.9%.

By viability is commonly meant a read-out of living cells in per cent, often relative to untreated cells.
